Measurements from publication PMC5575539 (Journal of Clinical Pharmacology, 2017).
Where two headings read alike, the source gives them in different places.

Legend:
[1] = format: in vivo, human; details: for AUC: human, plasma, oral, 12 mg, Median AUC based on the starting dose, steady state, model‐derived
[2] = 4‐week cycles, continuous schedule; subjects with Child‐Pugh class A; cited from earlier work
[3] = system: subjects with HCC Child‐Pugh class A; details: 12 mg QD; independent radiologic review per modified RECIST; cited from earlier work
[4] = Population pharmacokinetic analysis of lenvatinib; format: in vivo, human; details: for Additional (ng/mL) (TAD ≤ 2 hours) / Proportional (%CV) (Clinical pharmacology studies) / Proportional (%CV) (Patient studies) / Proportional (%CV) (TAD ≤ 2 hours): residual error
[5] = format: in vivo, human; details: ROC curve; TEAEs during cycle 1; subjects with HCC
[6] = final model, bootstrap median (2.5‐97.5 percentile)
[7] = final model, population mean (%RSE)
[8] = base model, population mean (%RSE)

For `COc1cc2nccc(Oc3ccc(NC(=O)NC4CC4)c(Cl)c3)c2cc1C(N)=O` [lenvatinib], the “Subjects who experienced TEAEs leading to dose reduction or discontinuation during cycle 1” value ([1]; 21 of 45 subjects in the exposure–response population, 12 mg QD, HCC) was 46.7%, the “Relationship between lenvatinib exposure and response (time to progression)” value ([1]; Kaplan‐Meier, tertiles of AUC based on starting dose of 12 mg, independent reviewer assessments) was “No relationship” and the AUC ([1]; subjects with early dose withdrawal or reduction) was 2950 ng·h/mL. For the same compound, the AUC ([1]; subjects without early dose modification) was 2050 ng·h/mL, the Maximum tolerated dose [2] was 12 mg QD and the “Median time to progression” value [3] was 7.4 months. For the same compound, the Objective response rate [3] was 37%, the Ka ([4]; base model, population mean (%RSE), absorption rate) was 1.02 (6.06) L/h and the D1 ([4]; base model, population mean (%RSE), duration of 0‐order absorption) was 1.05 (5.45) hours. The “F1 (capsule vs tablet formulation)” value ([4]; base model, population mean (%RSE), relative bioavailability) was 0.832 (0.982), the “Effect of the HCC population (HCC vs other cancer type) on CL/F” value ([4]; covariate analysis, model including body weight and alkaline phosphatase effects) was “not a statistically significant effect” and the “CL/F interindividual variability explained by body weight” value ([4]; final PK model) was 10.5%. The “CL/F interindividual variability explained by other covariates” value ([4]; final PK model) was 14.3%, the “Decrease of CL/F with CYP3A4 inhibitors” value ([4]; final PK model) was 7.8% and the “Decrease of CL/F with alkaline phosphatase above the upper limit of normal” value ([4]; final PK model) was 14.8%. For the same compound, the “Higher CL/F in healthy subjects than in patients with cancer” value ([4]; final PK model) was 19%, the “Increase of CL/F with concomitant administration of CYP3A4 inducers” value ([4]; final PK model) was 30% and the “Decrease of CL/F with alkaline phosphatase above the upper limit of normal” value ([4]; final PK model, listed as Lenvatinib) was 15%. The “ALP (> ULN vs ≤ ULN) on CL/F [ΘALP]” value [4, 6] was 0.855 (0.807‐0.910), the “Body weight on V1/F, V2/F, and V3/F [ΘWGT2]” value [4, 6] was 1.08 (0.876‐1.28) and the D1 [4, 6] was 1.06 (0.987‐1.14) hours. The “F1 (capsule vs tablet formulation)” value [4, 6] was 0.867 (0.815‐0.908), the Ka [4, 6] was 1.04 (0.933‐1.13) L/h and the “Population (healthy vs subjects) on CL/F [ΘTM]” value [4, 6] was 1.19 (1.11‐1.27). For the same compound, the “ALP (> ULN vs ≤ ULN) on CL/F [ΘALP]” value [4, 7] was 0.852 (1.24), the “Population (healthy vs subjects) on CL/F [ΘTM]” value [4, 7] was 1.19 (3.26) and the Ka ([4]; final model, population mean (%RSE), absorption rate) was 1.04 (6.80) L/h. For the same compound, the D1 ([4]; final model, population mean (%RSE), duration of 0‐order absorption) was 1.06 (5.77) hours, the “Body weight on V1/F, V2/F, and V3/F [ΘWGT2]” value ([4]; final model, population mean (%RSE), power exponent on WGT/75) was 1.08 (5.42) and the “F1 (capsule vs tablet formulation)” value ([4]; final model, population mean (%RSE), relative bioavailability) was 0.867 (1.00). For the same compound, the “Differences in CL/F between HCC Child‐Pugh class A and B groups” value ([4]; population PK analysis) was “No differences in CL/F”, the “Additional (ng/mL) (TAD ≤ 2 hours)” value [4, 8] was 7.29 (16.2) ng/mL and the “Proportional (%CV) (Clinical pharmacology studies)” value [4, 8] was 18.4 (0.888) %CV. For the same compound, the “Proportional (%CV) (Patient studies)” value [4, 8] was 30.7 (2.03) %CV, the “Proportional (%CV) (TAD ≤ 2 hours)” value [4, 8] was 44.9 (3.75) %CV and the “Additional (ng/mL) (TAD ≤ 2 hours)” value [4, 6] was 7.50 (4.62‐9.85) ng/mL. For the same compound, the “Proportional (%CV) (Clinical pharmacology studies)” value [4, 6] was 17.1 (15.5‐18.8) %CV, the “Proportional (%CV) (Patient studies)” value [4, 6] was 30.1 (27.7‐32.2) %CV and the “Proportional (%CV) (TAD ≤ 2 hours)” value [4, 6] was 44.8 (40.7‐48.8) %CV. For the same compound, the “Additional (ng/mL) (TAD ≤ 2 hours)” value [4, 7] was 7.35 (16.3) ng/mL, the “Proportional (%CV) (Clinical pharmacology studies)” value [4, 7] was 17.3 (0.883) %CV and the “Proportional (%CV) (Patient studies)” value [4, 7] was 30.2 (2.00) %CV. The “Proportional (%CV) (TAD ≤ 2 hours)” value [4, 7] was 44.8 (3.87) %CV and the “Best cutoff value of lenvatinib AUC to predict high‐risk group for early drug withdrawal or dose reduction” value [5] was 2430 ng·h/mL.
